The term pKB denotes the KB on a negative log10 scale, so that one unit is a factor of ten. Lower therefore signals a high KB. By Ki is commonly meant a dissociation constant, usually derived from enzyme kinetics or from competition with a known ligand. Higher therefore signals lower affinity.

This is an account of results in ChEMBL document CHEMBL1132531, “From histamine to imidazolylalkyl-sulfonamides: the design of a novel series of histamine H3-receptor antagonists” (Bioorg Med Chem Lett, 1999).

Test [1] has as its target Histamine H3 receptor (Cavia porcellus) (UniProt Q9JI35). The test can be described thus: Inhibition of H3-receptor mediated neurogenic contractions in the isolated guinea pig ileum assay. Type of test: functional, tissue-based.
Test [2] has as its target T1, Histamine H3 receptor (Cavia porcellus, UniProt Q9JI35). The test is described as follows: Binding affinity towards histamine H3 receptor using [3H](R)-alpha-methylhistamine as radioligand in guinea pig cortical homogenates.
Test [3] has as its target T1, Histamine H3 receptor. The test can be described thus: Binding affinity towards histamine H3 receptor using [3H](R)-alpha-methylhistamine as radioligand in guinea pig ileum LMMP homogenates. The format is tissue-based.
In test [4] the target is Histamine H3 receptor (Cavia porcellus) (UniProt Q9JI35). The test is described as follows: Compound was tested for inhibition of histamine H3-receptor mediated neurogenic contractions in the isolated guinea pig ileum assay; Full agonist. The format is functional, tissue-based.
For test [5] the target is unchanged. The test is described as follows: Compound was tested for inhibition of histamine H3-receptor mediated neurogenic contractions in the isolated guinea pig ileum assay; Partial agonist. The format is functional, tissue-based.

Each structure is given as a SMILES string.

Histamine H3 receptor (Cavia porcellus), sequence (Q9JI35 whole entry): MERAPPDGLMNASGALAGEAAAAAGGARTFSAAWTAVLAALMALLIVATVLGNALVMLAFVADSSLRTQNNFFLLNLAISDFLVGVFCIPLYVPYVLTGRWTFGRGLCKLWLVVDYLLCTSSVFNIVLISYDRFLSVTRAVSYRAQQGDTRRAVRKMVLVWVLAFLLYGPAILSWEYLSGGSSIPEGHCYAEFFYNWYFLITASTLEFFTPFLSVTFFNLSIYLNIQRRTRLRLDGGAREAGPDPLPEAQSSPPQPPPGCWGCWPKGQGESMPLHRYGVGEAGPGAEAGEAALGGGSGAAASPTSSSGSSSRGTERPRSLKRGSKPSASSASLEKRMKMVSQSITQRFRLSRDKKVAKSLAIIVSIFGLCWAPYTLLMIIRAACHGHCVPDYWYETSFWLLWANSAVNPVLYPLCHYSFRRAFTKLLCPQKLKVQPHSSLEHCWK
T1 sequence (Q9JI35 whole entry): as above

Turning to `O=S(=O)(NCCCCCCCCCCc1c[nH]cn1)c1ccc2ccccc2c1`, in test [1], the pKB worked out at 5.79. On Histamine H3 receptor [2], this molecule had a Ki of 138 nM.
As for `O=S(=O)(Cc1ccc2ccccc2c1)NCCc1c[nH]cn1`, in test [1], the pKB is under 5. Besides, the inhibition constant Ki on Histamine H3 receptor [3] is 1150 nM; at Histamine H3 receptor [2], 490 nM.
The molecule `O=S(=O)(NCCCc1c[nH]cn1)c1ccc2ccccc2c1` showed a pKB in test [1] of 5.93. The Ki at Histamine H3 receptor [2] is 14.1 nM.
The corresponding values for `O=S(=O)(NCCCCCCCc1c[nH]cn1)c1ccc2ccccc2c1` are 6.88 and 50.1 nM.
In the case of `O=S(=O)(Cc1ccccc1)NCCc1c[nH]cn1`, the pKB in test [1] was under 5.
For `O=S(=O)(NCCCCCCc1c[nH]cn1)c1ccc2ccccc2c1`, in test [1], the pKB came to 7.11. This molecule had a Ki on Histamine H3 receptor [2] of 25.1 nM.
The corresponding values for `O=S(=O)(CCC1CCCCC1)NCCc1c[nH]cn1` are 5.87 and 16.2 nM.
Molecule `O=S(=O)(NCCc1c[nH]cn1)c1ccc2ccccc2c1` returned a pKB in test [1] of 6.7.
Take `C[C@H](Cc1c[nH]cn1)NS(=O)(=O)c1ccc2ccccc2c1`: the affinity on Histamine H3 receptor [2], expressed as Ki, was 1.02 nM. This molecule returned a p[A]50 in test [4] of 6.02.
`CS(=O)(=O)NCCc1c[nH]cn1`: the affinity at Histamine H3 receptor [3] corresponds to a Ki of 186 nM. In test [5], this molecule yielded a pKB of 4.77.
In the case of `C[C@@H](N)Cc1c[nH]cn1`, the Ki at Histamine H3 receptor [3] is 0.151 nM; at Histamine H3 receptor [2], 0.0851 nM. The molecule further registered a p[A]50 in test [4] of 7.94.
The corresponding values for `NCCc1c[nH]cn1` [HISTAMINE] are 10.5 nM, 0.145 nM and 7.15.
`O=S(=O)(NCCCCc1c[nH]cn1)c1ccc2ccccc2c1` registered a pKB in test [1] of 6.81. For the same molecule, the Ki at Histamine H3 receptor [2] was 22.9 nM.
Molecule `O=S(=O)(/C=C/c1ccccc1)NCCc1c[nH]cn1` displayed a negative-log KB (pKB) in test [1] of under 5.5. On Histamine H3 receptor [2], this molecule gave an inhibition constant (Ki) of 115 nM.
Regarding `O=S(=O)(NCCCCCCCCc1c[nH]cn1)c1ccc2ccccc2c1`, in test [1], the pKB worked out at 6.62.
In test [1], `O=S(=O)(NCCCCCc1c[nH]cn1)c1ccc2ccccc2c1` had a negative-log KB (pKB) of 6.96. At Histamine H3 receptor [2], this molecule had a Ki of 14.8 nM.
